According to the supplement of paper PMC12076712:

Legend:
Assay in all cases: pIC50, kinobeads binding competition
[1] = target: BLK (UniProt P51451)
Method in brief: (§1)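 pIC50 was obtained by fitting fold changes against vehicle to logistic dose-response curves with the R drc package, using biological duplicates. Kinobeads-bound proteins were digested and measured by TMT10 LC-MS/MS. Before this, either living Jurkat cells received nine compound concentrations (top 30 μM, 1:4 steps) for 60 min at 37 °C prior to lysis, or Jurkat lysate or a 1:1:1:1 HEK293/K-562/HepG2/placenta lysate mix received nine concentrations (top 30 μM, 1:5 steps) for 60 min at 4 °C.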

[2] = target: T1, PRKG2 (UniProt Q13237); settings: cell material: Jurkat lysate
T1 sequence (whole entry): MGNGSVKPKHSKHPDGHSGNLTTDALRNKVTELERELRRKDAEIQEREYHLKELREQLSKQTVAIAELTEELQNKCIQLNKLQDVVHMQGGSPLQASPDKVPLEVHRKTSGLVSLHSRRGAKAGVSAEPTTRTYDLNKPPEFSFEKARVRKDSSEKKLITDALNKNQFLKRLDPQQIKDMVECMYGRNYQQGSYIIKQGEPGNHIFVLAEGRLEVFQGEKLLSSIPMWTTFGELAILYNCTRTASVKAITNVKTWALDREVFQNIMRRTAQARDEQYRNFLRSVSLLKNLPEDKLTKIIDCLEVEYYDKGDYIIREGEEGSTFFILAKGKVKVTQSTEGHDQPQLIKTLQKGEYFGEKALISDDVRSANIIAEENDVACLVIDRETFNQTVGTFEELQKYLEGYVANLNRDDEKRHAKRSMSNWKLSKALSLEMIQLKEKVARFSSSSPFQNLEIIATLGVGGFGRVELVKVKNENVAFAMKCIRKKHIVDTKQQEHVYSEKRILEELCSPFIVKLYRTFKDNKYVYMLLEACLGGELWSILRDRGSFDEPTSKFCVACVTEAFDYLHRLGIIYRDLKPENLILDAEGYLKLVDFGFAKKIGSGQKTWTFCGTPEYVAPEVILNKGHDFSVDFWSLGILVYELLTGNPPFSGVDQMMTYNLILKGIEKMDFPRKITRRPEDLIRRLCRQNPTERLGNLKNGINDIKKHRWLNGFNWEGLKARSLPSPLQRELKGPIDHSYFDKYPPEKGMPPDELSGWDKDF
Method in brief: as §1

[3] = target: T2, CAMK4 (UniProt Q16566)
T2 sequence (whole entry): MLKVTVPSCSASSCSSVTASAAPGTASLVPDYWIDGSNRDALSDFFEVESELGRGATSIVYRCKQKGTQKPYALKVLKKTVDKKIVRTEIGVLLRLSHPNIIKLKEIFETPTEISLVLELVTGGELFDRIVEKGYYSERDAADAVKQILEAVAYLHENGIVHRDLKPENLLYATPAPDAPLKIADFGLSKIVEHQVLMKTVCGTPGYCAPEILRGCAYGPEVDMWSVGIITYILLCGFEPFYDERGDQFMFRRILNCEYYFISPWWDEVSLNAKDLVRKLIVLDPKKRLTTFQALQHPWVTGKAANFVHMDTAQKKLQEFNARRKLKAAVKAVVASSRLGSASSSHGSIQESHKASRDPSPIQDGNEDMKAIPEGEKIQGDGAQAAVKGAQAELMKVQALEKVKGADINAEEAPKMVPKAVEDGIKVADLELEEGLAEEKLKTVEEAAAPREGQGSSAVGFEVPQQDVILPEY
Method in brief: as §1

[4] = target: T3, SNRK (UniProt Q9NRH2)
T3 sequence (whole entry): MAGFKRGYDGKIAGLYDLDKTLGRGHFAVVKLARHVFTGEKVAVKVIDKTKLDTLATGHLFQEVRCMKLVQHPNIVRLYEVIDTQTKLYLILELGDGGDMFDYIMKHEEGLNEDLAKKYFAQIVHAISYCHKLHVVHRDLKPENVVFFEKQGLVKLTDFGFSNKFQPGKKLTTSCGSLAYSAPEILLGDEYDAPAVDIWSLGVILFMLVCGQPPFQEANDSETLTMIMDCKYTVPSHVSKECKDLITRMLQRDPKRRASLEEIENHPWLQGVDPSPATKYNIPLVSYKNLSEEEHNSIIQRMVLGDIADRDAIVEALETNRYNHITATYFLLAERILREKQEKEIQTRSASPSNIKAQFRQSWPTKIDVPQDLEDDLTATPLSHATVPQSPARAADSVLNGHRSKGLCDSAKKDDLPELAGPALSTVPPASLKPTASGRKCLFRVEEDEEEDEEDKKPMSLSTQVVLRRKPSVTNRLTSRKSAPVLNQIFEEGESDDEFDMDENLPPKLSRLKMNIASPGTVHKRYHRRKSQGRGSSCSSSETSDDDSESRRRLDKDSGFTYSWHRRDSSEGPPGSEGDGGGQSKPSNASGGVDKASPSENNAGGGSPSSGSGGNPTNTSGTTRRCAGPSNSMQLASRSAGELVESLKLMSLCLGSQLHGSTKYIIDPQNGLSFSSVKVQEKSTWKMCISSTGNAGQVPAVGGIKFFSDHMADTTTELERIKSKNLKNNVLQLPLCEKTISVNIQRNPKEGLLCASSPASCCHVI
Method in brief: as §1

[5] = target: T4, TXK (UniProt P42681)
T4 sequence (whole entry): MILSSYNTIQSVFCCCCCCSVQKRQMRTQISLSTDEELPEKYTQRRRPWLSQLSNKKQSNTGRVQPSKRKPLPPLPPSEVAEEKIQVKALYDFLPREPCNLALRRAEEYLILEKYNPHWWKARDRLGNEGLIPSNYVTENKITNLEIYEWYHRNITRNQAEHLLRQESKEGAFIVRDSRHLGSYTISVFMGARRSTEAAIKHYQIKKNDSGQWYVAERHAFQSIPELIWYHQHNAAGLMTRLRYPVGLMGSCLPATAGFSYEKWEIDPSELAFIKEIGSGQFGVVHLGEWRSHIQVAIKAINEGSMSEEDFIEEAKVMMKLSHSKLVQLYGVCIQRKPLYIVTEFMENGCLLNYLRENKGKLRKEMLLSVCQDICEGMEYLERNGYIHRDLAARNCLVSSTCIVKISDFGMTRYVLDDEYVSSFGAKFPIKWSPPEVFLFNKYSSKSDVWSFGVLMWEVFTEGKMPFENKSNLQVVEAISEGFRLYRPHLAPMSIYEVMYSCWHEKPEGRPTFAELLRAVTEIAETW
Method in brief: as §1

[6] = target: TLK1 (UniProt Q9UKI8)
Method in brief: as §1

[7] = target: UniProt P23443
Method in brief: as §1

[8] = target: MAST1 (UniProt Q9Y2H9); settings: cell material: Jurkat lysate
Method in brief: as §1

Sequence of UniProt P23443 (P23443 whole entry, looked up): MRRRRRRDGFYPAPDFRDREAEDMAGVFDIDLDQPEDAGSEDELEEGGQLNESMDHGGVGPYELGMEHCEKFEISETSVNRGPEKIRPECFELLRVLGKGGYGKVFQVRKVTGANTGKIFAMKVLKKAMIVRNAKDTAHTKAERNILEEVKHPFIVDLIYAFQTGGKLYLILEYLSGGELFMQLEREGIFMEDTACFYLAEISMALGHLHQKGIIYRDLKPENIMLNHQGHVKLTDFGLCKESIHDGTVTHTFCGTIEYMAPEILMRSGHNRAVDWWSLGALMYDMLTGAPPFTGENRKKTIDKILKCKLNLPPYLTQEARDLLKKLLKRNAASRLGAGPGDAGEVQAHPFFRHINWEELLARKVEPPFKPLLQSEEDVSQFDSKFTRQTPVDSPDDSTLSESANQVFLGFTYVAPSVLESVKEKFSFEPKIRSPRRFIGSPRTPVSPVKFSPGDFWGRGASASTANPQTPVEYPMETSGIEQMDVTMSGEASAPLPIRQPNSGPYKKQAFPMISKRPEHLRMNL
Sequence of BLK (P51451 whole entry, looked up): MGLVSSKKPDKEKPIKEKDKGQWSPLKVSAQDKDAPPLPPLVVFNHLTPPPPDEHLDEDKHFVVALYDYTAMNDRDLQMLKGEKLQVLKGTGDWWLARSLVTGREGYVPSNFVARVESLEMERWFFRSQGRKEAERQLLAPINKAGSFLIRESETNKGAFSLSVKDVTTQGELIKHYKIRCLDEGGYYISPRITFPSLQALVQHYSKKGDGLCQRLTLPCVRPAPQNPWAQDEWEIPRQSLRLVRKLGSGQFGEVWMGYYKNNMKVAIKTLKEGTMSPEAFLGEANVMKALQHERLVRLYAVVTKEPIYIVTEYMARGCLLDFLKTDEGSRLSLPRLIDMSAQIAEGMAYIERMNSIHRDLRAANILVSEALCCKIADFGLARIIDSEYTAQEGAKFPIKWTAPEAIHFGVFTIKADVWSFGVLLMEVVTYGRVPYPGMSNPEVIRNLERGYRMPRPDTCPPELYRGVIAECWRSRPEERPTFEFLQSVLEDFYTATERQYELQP
Sequence of MAST1 (Q9Y2H9 whole entry, looked up): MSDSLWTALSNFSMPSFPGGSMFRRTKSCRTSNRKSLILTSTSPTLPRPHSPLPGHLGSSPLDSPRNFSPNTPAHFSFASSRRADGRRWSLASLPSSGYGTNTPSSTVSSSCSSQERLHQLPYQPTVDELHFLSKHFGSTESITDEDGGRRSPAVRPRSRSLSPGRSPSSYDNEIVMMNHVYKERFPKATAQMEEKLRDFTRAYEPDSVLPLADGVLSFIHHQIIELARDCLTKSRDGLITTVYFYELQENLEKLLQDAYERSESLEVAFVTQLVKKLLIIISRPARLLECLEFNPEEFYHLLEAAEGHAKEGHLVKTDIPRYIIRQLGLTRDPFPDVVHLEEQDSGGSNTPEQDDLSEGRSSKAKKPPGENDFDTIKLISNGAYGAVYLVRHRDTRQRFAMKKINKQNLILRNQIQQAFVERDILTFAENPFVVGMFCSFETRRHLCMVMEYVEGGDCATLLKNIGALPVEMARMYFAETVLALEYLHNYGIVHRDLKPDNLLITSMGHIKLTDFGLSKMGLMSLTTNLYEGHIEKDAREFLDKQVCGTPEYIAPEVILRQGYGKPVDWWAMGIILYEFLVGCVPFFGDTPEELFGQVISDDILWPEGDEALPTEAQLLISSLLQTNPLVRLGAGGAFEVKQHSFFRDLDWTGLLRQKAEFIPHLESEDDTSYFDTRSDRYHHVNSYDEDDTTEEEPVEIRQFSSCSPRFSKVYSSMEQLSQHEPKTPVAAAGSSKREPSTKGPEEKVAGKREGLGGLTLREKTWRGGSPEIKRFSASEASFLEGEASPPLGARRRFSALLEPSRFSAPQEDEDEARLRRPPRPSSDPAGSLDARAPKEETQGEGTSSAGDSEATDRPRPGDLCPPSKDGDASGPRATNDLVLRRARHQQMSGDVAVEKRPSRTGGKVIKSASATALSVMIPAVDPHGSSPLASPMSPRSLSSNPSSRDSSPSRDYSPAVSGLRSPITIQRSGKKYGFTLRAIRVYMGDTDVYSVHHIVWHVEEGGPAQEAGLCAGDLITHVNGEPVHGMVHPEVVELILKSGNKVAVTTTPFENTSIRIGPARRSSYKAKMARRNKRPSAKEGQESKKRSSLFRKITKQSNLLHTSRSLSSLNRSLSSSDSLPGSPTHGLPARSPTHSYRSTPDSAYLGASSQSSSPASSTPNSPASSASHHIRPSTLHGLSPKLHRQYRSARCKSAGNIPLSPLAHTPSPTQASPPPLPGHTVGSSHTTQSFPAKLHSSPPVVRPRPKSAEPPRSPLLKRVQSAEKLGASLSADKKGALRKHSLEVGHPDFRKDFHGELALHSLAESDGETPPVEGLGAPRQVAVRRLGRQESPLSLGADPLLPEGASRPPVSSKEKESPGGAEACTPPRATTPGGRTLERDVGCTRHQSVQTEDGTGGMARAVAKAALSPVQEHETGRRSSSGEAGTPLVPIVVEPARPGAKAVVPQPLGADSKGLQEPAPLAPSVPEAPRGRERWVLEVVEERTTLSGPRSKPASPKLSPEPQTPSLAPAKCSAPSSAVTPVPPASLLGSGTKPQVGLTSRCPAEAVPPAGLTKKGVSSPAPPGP
Sequence of TLK1 (Q9UKI8 whole entry): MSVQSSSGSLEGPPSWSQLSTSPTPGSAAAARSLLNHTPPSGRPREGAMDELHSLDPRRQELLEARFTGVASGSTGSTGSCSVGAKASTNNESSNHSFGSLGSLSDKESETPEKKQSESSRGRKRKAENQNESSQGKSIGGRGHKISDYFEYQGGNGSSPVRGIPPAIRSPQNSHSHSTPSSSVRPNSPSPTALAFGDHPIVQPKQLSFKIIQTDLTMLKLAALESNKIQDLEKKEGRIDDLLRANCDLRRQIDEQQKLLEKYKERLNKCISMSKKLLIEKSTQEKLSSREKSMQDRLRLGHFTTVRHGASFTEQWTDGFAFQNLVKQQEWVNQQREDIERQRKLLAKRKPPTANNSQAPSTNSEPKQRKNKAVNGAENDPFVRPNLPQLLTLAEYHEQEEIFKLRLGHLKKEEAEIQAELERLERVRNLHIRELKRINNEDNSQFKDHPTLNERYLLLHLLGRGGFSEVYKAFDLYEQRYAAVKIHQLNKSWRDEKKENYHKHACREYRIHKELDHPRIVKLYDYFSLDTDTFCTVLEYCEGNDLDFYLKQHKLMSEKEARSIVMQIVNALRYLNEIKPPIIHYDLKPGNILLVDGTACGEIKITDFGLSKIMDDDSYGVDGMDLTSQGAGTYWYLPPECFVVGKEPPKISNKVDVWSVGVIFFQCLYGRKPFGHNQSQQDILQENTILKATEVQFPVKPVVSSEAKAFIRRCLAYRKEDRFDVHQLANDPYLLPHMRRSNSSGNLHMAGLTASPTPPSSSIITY

Row | pIC50 ([3]; cell material: Jurkat lysate) | pIC50 ([6]; cell material: Lysate mix) | Structure (SMILES) | pIC50 ([1]; cell material: Jurkat cells) | pIC50 ([1]; cell material: Jurkat lysate) | pIC50 [2] | pIC50 ([3]; cell material: Jurkat cells) | pIC50 ([4]; cell material: Jurkat cells) | pIC50 ([4]; cell material: Jurkat lysate) | pIC50 ([5]; cell material: Jurkat cells) | pIC50 ([5]; cell material: Jurkat lysate) | pIC50 ([6]; cell material: Jurkat cells) | pIC50 ([7]; cell material: Jurkat cells) | pIC50 ([7]; cell material: Jurkat lysate) | pIC50 [8]
1 |  |  | C#CCNC(=O)c1cc(Nc2cc(C3CC3)[nH]n2)nc(N2CCN(Cc3ccc(S(=O)(=O)F)cc3)CC2)n1 | 6.82 | 6.51 | < 4.52 | 5.09 | 5.47 | < 4.52 | 5.4 | < 4.52 | 4.82 | 5.19 | < 4.52 | 5.92
2 | < 4.52 |  | O=C(NCCNC(=O)c1cc(Nc2cc(C3CC3)[nH]n2)nc(N2CCN(Cc3ccc(S(=O)(=O)F)cc3)CC2)n1)OC1CC/C=C/CCC1 (stereo not drawn) | 6.73 | 5.1 | < 4.52 | < 4.52 |  | < 4.52 | < 4.52 | < 4.52 |  |  | < 4.52 | 4.57
3 |  | 4.92 | CCNC(=O)c1cc(Nc2cc(C)[nH]n2)nc(N2CCN(Cc3ccc(S(=O)(=O)F)cc3)CC2)n1 |  |  |  |  |  |  |  |  |  |  |  | 
